Counter-ions that a name gives are not always drawn.
Target: T1, IKZF2 (Homo sapiens, UniProt Q96SW2+Q9UKS7)
T1 construct: endogenous in cells; host or cells: MOLT4 (CRISPR/Cas9 HiBit knock-in at the IKZF2 locus)
Assay: MOLT4 IKZF2 HiBit assay
Type: cell-based
Settings: MOLT4 IKZF2 HiBit cells; for DC50: 6 hours incubation, 10-point dose response from 30 μM; for Dmax at 30 µM: MOLT-4, 6 hr (Dmax), read-out: % reduction of IKZF2 @ 30 μM (6 hr)
Procedure: MOLT4 IKZF2 HiBit Assay Protocol:
This protocol used MOLT4 cells that were engineered using CRISPR/Cas9-mediated genomic insertion of HiBit, tagged to the N terminus of the IKZF2 coding sequence. Day 1. A 10-point dose response was created starting from 30 μM down to InM using a Tecan D300e. Next was added 8,000 cells/well of the MOLT4 IKZF2 HiBit cells to the compound plate. The compounds plate was incubated for 6 hours. Day 2. Nano-Glo HiBit Lytic Buffer/Nano-Glo HiBit Lytic substrate/LgBit Protein mix was added to each well and the compound plate was incubated for 15 minutes. Finally, luminescence signal was read using a BMG Labtech PHERAstar FSX. Data was normalized to DMSO and graphed using GraphPad Prism to determine the concentration points at which 50% of HiBiT-Helios degradation was achieved by each compound. The extent of degradation (range of luminescence) from the highest to lowest concentration points was calculated to determine Dmax.

T1 sequence (Q9UKS7 whole entry): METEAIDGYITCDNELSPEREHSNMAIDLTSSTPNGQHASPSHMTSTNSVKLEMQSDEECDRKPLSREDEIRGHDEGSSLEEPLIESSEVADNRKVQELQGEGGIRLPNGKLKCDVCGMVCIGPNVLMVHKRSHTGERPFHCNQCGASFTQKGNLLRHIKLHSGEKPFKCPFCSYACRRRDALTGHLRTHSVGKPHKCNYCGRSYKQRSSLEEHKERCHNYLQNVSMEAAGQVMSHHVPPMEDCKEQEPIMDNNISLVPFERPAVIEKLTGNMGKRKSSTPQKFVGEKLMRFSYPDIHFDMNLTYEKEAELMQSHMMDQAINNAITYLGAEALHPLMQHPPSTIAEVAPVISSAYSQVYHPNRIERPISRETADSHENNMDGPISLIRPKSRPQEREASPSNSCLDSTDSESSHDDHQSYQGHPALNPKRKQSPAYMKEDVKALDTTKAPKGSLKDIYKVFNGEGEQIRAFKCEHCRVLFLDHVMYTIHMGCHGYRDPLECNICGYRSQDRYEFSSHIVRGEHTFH
T1 sequence (Q96SW2 whole entry): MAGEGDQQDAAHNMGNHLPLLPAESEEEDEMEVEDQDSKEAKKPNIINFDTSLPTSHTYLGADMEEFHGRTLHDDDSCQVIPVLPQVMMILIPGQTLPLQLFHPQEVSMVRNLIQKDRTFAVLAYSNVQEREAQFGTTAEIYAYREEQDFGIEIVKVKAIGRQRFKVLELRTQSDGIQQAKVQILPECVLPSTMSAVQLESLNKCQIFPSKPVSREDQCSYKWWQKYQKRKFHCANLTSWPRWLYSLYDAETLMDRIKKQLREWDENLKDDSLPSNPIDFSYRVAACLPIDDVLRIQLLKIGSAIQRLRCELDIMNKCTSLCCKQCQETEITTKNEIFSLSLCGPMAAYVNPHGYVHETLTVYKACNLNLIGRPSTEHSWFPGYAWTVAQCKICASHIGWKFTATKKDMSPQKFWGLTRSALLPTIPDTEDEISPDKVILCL
T1 sequence (Q16531 whole entry partner): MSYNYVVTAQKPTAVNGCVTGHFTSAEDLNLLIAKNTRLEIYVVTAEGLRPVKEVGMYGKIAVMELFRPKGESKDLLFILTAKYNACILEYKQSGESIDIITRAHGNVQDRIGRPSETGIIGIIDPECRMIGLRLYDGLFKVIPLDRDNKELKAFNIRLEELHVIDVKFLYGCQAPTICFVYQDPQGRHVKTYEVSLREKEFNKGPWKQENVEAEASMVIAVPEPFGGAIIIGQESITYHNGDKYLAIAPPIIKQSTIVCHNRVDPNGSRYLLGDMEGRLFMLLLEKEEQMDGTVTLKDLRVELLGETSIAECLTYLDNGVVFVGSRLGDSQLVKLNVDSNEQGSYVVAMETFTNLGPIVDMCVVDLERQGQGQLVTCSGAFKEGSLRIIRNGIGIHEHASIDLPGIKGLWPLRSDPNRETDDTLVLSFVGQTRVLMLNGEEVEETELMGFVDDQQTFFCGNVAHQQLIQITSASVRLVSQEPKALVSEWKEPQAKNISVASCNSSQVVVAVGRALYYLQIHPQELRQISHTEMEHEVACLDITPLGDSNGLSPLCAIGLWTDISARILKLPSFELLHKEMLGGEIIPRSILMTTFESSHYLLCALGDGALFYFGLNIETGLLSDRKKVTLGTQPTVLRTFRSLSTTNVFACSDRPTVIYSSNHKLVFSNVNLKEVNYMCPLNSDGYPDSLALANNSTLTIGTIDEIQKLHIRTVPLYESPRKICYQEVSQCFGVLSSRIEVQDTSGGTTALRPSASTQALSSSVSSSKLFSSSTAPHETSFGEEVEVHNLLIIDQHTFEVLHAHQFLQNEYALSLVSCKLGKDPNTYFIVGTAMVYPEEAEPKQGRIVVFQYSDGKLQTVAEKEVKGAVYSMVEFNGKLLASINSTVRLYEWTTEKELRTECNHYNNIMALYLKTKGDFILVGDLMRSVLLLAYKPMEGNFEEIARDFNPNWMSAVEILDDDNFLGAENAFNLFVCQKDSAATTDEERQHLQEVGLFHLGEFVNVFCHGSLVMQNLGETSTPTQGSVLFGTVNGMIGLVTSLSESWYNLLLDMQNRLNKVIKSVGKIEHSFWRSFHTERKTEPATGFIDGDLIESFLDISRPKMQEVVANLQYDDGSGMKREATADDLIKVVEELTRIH

| SMILES | DC50 [nM] | Dmax at 30 µM [%] |
| --- | --- | --- |
| O=C1CCC(N2C(=O)c3ccc(C4(O)CCN(C(CF)c5ccccc5)CC4)cc3C2=O)C(=O)N1 (stereo not drawn) [Compound 34, 2-(2,6-dioxopiperidin-3-yl)-5-[1-(2-fluoro-1-phenylethyl)-4-hydroxypiperidin-4-yl]-2,3-dihydro-1H-isoindole-1,3-dione, formic acid salt] | 31 | 76 |
| CC(c1ccccc1)N1CCC(O)(c2ccc3c(c2)C(=O)N(C2CCC(=O)NC2=O)C3=O)CC1 (stereo not drawn) [Compound 35, 2-(2,6-dioxopiperidin-3-yl)-5-[4-hydroxy-1-(1-phenylethyl)piperidin-4-yl]-2,3-dihydro-1H-isoindole-1,3-dione, HCl salt] | 4 | 84 |
| N#Cc1cccc(CN2CCC(O)(c3ccc4c(c3)C(=O)N(C3CCC(=O)NC3=O)C4=O)CC2)c1 (stereo not drawn) [Compound 42, 3-({4-[2-(2,6-dioxopiperidin-3-yl)-1,3-dioxo-2,3-dihydro-1H-isoindol-5-yl]-4-hydroxypiperidin-1-yl}methyl)benzonitrile] | 9 | 80 |
| N#Cc1ccc(CN2CCC(O)(c3ccc4c(c3)C(=O)N(C3CCC(=O)NC3=O)C4=O)CC2)cc1 (stereo not drawn) [Compound 57, 4-({4-[2-(2,6-dioxopiperidin-3-yl)-1,3-dioxo-2,3-dihydro-1H-isoindol-5-yl]-4-hydroxypiperidin-1-yl}methyl)benzonitrile] | 6 | 81 |
| COCc1ccc(CN2CCC(O)(c3ccc4c(c3)C(=O)N(C3CCC(=O)NC3=O)C4=O)CC2)cc1 (stereo not drawn) [Compound 61, 2-(2,6-dioxopiperidin-3-yl)-5-(4-hydroxy-1-{[4-(methoxymethyl)phenyl]methyl}piperidin-4-yl)-2,3-dihydro-1H-isoindole-1,3-dione, HCl salt] | 5 | 83 |
| O=C1CCC(N2C(=O)c3ccc(C4(O)CCN(Cc5ccccn5)CC4)cc3C2=O)C(=O)N1 (stereo not drawn) [Compound 68, 2-(2,6-dioxopiperidin-3-yl)-5-{4-hydroxy-1-[(pyridin-2-yl)methyl]piperidin-4-yl}-2,3-dihydro-1H-isoindole-1,3-dione, HCl salt] | 21 | 71 |
| O=C1CCC(N2C(=O)c3ccc(C4(O)CCN(Cc5cccnc5)CC4)cc3C2=O)C(=O)N1 (stereo not drawn) [Compound 69, 2-(2,6-dioxopiperidin-3-yl)-5-{4-hydroxy-1-[(pyridin-3-yl)methyl]piperidin-4-yl}-2,3-dihydro-1H-isoindole-1,3-dione, formic acid salt] | 39 | 72 |
| O=C1CCC(N2C(=O)c3ccc(C4(O)CCN(Cc5ccncc5)CC4)cc3C2=O)C(=O)N1 (stereo not drawn) [Compound 70, 2-(2,6-dioxopiperidin-3-yl)-5-{4-hydroxy-1-[(pyridin-4-yl)methyl]piperidin-4-yl}-2,3-dihydro-1H-isoindole-1,3-dione, HCl salt] | 20 | 78 |
| COc1ccc(CN2CCC(O)(c3ccc4c(c3)C(=O)N(C3CCC(=O)NC3=O)C4=O)CC2)cn1 (stereo not drawn) [Compound 72, 2-(2,6-dioxopiperidin-3-yl)-5-{4-hydroxy-1-[(6-methoxypyridin-3-yl)methyl]piperidin-4-yl}-2,3-dihydro-1H-isoindole-1,3-dione, HCl salt] | 1 | 80 |
| COC[C@H]1CC[C@H](CN2CCC(O)(c3ccc4c(c3)C(=O)N(C3CCC(=O)NC3=O)C4=O)CC2)CC1 (stereo partly drawn) [Compound 84, trans-2-(2,6-dioxopiperidin-3-yl)-5-(4-hydroxy-1-((4-(methoxymethyl)cyclohexyl)methyl)piperidin-4-yl)isoindoline-1,3-dione] | 8.3 | 60 |
| COC[C@H]1CC[C@H](CN2CCC(c3ccc4c(c3)C(=O)N(C3CCC(=O)NC3=O)C4=O)CC2)CC1 (stereo partly drawn) [Compound 85, trans-2-(2,6-dioxopiperidin-3-yl)-5-(1-((4-(methoxymethyl)cyclohexyl)methyl)piperidin-4-yl)isoindoline-1,3-dione formic acid] | – | 25 |

— patent US20240239785A1, “SUBSTITUTED 2-(2,6-DIOXOPIPERIDIN-3-YL)-5-(1-PIPERIDIN-4-YL)ISOINDOLINE-1,3-DIONE DERIVATIVES AND USES THEREOF” (Neomorph, Inc., priority 2021, published 2024)
